Laboratory results published in US4044043A, “Derivatives of 9-oxo-13-trans-prostenoic acid esters” (American Cyanamid Company, priority 1975, dated 1977).
In brackets after ≈: the same amount, converted by molar mass. Read-outs that look alike come from different tables or passages of the source.

Legend:
gastric acid secretion = assay: Inhibition of basal Gastric Acid Secretion (Acute Gastric Fistula Rat); type: in vivo, Female Sprague-Dawley rats; conditions: 2 h, 10 mg./kg. intraduodenal, B: 120 minute collection
Procedure: Inhibition of basal gastric acid secretion was determined in the acute gastric fistula rat as follows. Female Sprague-Dawley rats (Charles River Laboratories) weighing 140-160 grams are fasted in individual cages for 18-24 hours. The rats are then lightly anesthetized with ether and their front teeth extracted to avoid destruction of the plastic cannula. A midline incision is then made and the stomach and duodenum exposed. A flanged polyvinyl tube is inserted into the fundic portion of the stomach and secured with a purse string suture line using 4-0 Mersilene. The rat is then dosed by injection of the compound into the duodenum (1.0 ml. per 100 gram body weight). After dosing, the abdominal wall and skin are closed using metal wound clips. The rat is replaced in a cage containing a longitudinal slit to allow the polyvinyl tube to hang freely. An 8 ml. plastic collecting tube is attached to the flanged cannula and hangs freely below the cage. The first 30 minute sample is discarded designating this time as zero. The collecting tube is attached again and samples removed at the end of 60 and 120 minutes. Those samples are referred to as "A" and "B" in the table. The hourly samples are then transferred to a 15 ml. centrifuge tube and centrifuged for 5-10 minutes. Total and sediment volume are then recorded with the supernatant volume being used as volume of secretion. A 1 ml. or less aliquot is then removed and placed in a 50 ml. beaker containing 10 ml. of distilled water. This sample is then titrated using 0.01N NaOH to pH 7.0 using a Beckman zeromatic pH meter. Volume, titratable acidity (meq/L) and total acid output (μ eq/hour) are recorded. Percent inhibition is determined by comparison with the appropriate control. Groups of three rats were used. All compounds are administered in vehicle (0.5% methocel, 0.4% Tween 80, saline) at a constant volume of 1 ml./100 gram rat. Samples were sonicated with care to prevent overheating.

[1] = test system: Microsporum gypseum ATCC 14683; assay: agar-dilution streak-plate antimicrobial assay; type: cell-based; conditions: Nannizzia gypsea, ATCC14683, read-out: Minimal inhibitory conc. (2)
Procedure, shortened: (§1)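 Test solutions at 2.5 mg/ml were two-fold serially diluted, and 1 ml of each was mixed into 9 ml warm nutrient agar, with bacterial and fungal media kept separate. Overnight broth cultures or saline spore suspensions were streaked by loop. MIC was the lowest concentration (µg/ml) giving complete visible growth inhibition.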

[2] = test system: Trichophyton mentagrophytes E 11; assay: agar-dilution streak-plate antimicrobial assay; type: cell-based; conditions: E11, read-out: Minimal inhibitory conc. (4)
Procedure, shortened: as §1

[3] = test system: Trichophyton tonsurans NIH 662; assay: agar-dilution streak-plate antimicrobial assay; type: cell-based; conditions: NIH662, read-out: Minimal inhibitory conc. (3)
Procedure, shortened: as §1

Trichophyton rubrum E 97 = assay: agar-dilution streak-plate antimicrobial assay; type: cell-based; conditions: E97, read-out: Minimal inhibitory conc. (5)
Procedure, shortened: as §1

[4] = test system: Microsporum canis ATCC 10214; assay: agar-dilution streak-plate antimicrobial assay; type: cell-based; conditions: ATCC10214, read-out: Minimal inhibitory conc. (1)
Procedure, shortened: as §1

diastolic blood pressure = assay: Prostaglandin-like hypotensive activity in anesthetized rats (minimal dose for about 10 mm. decrease in diastolic blood pressure); type: in vivo, Male Wistar strain rats; conditions: Rattus norvegicus; intravenous; decrease of about 10 mm. in diastolic blood pressure
Procedure, shortened: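 Male Wistar rats (~250 g), pentobarbital 30 mg./kg. i.v. and hexamethonium 2 mg./kg. i.v., iliac artery cannulated for blood pressure. Compounds in saline-Tween 80 given i.v. at 0.1–10.0 mg./kg.; value is the minimal dose giving ~10 mm. drop in diastolic pressure.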

[5] = test system: Mycobacterium smegmatis ATCC 606; assay: agar-dilution streak-plate antimicrobial assay; type: cell-based; conditions: Mycolicibacterium smegmatis, ATCC606, read-out: Minimal inhibitory conc. (6)
Procedure, shortened: as §1

[6] = test system: Staphylococcus aureus Rose ATCC 14154; assay: agar-dilution streak-plate antimicrobial assay; type: cell-based; conditions: ATCC14154, read-out: Minimal inhibitory conc. (7)
Procedure, shortened: as §1

[7] = test system: Streptococcus pyogenes C 203; assay: agar-dilution streak-plate antimicrobial assay; type: cell-based; conditions: C203, read-out: Minimal inhibitory conc. (8)
Procedure, shortened: as §1

[8] = test system: dl-PGE1-induced contraction of gerbil colon; assay: Inhibition of dl-PGE1-Induced Contraction of Gerbil Colon (prostaglandin antagonist action); type: cell-based, gerbils (Meriones unguiculatus); conditions: Meriones unguiculatus, 1 min; sub-maximal challenge, 20 ng./ml. dl-PGE1; 50% inhibition of maximum response; read-out: ID50 vs. 20 ng. of PGE1/ml.
Procedure, shortened: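 Ascending colon from male gerbils, held in De Jalon's solution at 37 °C under 95% O2/5% CO2 with 0.5 g resting tension, contraction recorded isometrically. 1 min compound exposure, then 1 min dl-PGE1 at 200 ng/ml (maximal) or 20 ng/ml (sub-maximal). Approximate ID50 taken from a concentration series against the preceding agonist-only cycle.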

[9] = test system: bronchospasms elicited by acetylcholine; assay: Bronchodilator Activity (Konzett Assay) against acetylcholine; type: in vivo, guinea pigs; conditions: Cavia porcellus; three logarithmic cumulative intravenous doses
Procedure, shortened: (§2)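 Guinea pigs given intravenous spasmogen (5-hydroxytryptamine, histamine or acetylcholine) per Konzett procedure. ED50 derived from three logarithmic cumulative intravenous doses of test compound.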

[10] = test system: bronchospasms elicited by histamine; assay: Bronchodilator Activity (Konzett Assay) against histamine; type: in vivo, guinea pigs; conditions: Cavia porcellus; three logarithmic cumulative intravenous doses
Procedure, shortened: as §2

[11] = test system: bronchospasms elicited by 5-hydroxytryptamine; assay: Bronchodilator Activity (Konzett Assay) against 5-hydroxytryptamine; type: in vivo, guinea pigs; conditions: Cavia porcellus; three logarithmic cumulative intravenous doses
Procedure, shortened: as §2

Row | Structure (SMILES) | MIC [1] | MIC [2] | MIC [3] | MIC (Trichophyton rubrum E 97) | MIC [4] | MIC [5] | MIC [6] | MIC [7] | IC50 [8] | inhibition in vivo at 10 mg/kg (gastric acid secretion; read-out: % Inhibition Total Acid Output) | inhibition in vivo at 10 mg/kg (gastric acid secretion; read-out: % Inhibition Total Acidity) | minimal effective dose (diastolic blood pressure) | ED50 [9] | ED50 [10] | ED50 [11]
1 | CCCCCC/C=C/[C@@H]1CCC(=O)[C@H]1CC(=O)O (relative stereo) [9-oxo-3,4,5,6,7-pentanor-13-trans-prostenoic acid] | 250 µg/mL (≈ 991 µM) | 250 µg/mL (≈ 991 µM) | 125 µg/mL (≈ 495 µM) | 250 µg/mL (≈ 991 µM) | 250 µg/mL (≈ 991 µM) |  |  |  |  | 64% | 48% | 2 mg/kg |  |  | 
2 | CCCCCC/C=C/[C@H]1CCC(=O)[C@@H]1CCCCC(=O)O (relative stereo) [9-oxo-6,7-dinor-13-trans-prostenoic acid] | 250 µg/mL (≈ 849 µM) | 250 µg/mL (≈ 849 µM) | 250 µg/mL (≈ 849 µM) | 250 µg/mL (≈ 849 µM) | 250 µg/mL (≈ 849 µM) | 250 µg/mL (≈ 849 µM) | 250 µg/mL (≈ 849 µM) | 250 µg/mL (≈ 849 µM) | 10 to 20 µg/mL (≈ 34 to 67.9 µM) |  |  | 2 mg/kg |  |  | 
3 | CCCCCC/C=C/[C@@H]1CCC(=O)[C@H]1CCCCCCC(=O)OCCN(C)C (relative stereo) [β-dimethylaminoethyl 9-oxo-13-trans-prostenoate] |  |  | 250 µg/mL (≈ 635 µM) |  | 250 µg/mL (≈ 635 µM) | 10 µg/mL (≈ 25.4 µM) | 50 µg/mL (≈ 127 µM) | 10 µg/mL (≈ 25.4 µM) |  |  |  | 0.5 to 2 mg/kg |  |  | 
4 | CC(C)CCC=CC1CCC(O)C1CCCCCCC(=O)O (stereo not drawn) [9-hydroxy-17-methyl-18,19-dinor-13-trans-prostenoic acid] | 62 µg/mL (≈ 200 µM) | 62 µg/mL (≈ 200 µM) | 62 µg/mL (≈ 200 µM) | 250 µg/mL (≈ 805 µM) |  | 62 µg/mL (≈ 200 µM) | 125 µg/mL (≈ 403 µM) | 25 µg/mL (≈ 80.5 µM) | 5 to 10 µg/mL (≈ 16.1 to 32.2 µM) |  |  | 0.2 to 2 mg/kg |  |  | 

Now from value to compound, other results behind:

Row | MIC [1] | MIC [2] | MIC [3] | MIC (Trichophyton rubrum E 97) | MIC [4] | MIC [5] | MIC [6] | MIC [7] | IC50 [8] | Structure (SMILES) | inhibition in vivo at 10 mg/kg (gastric acid secretion; read-out: % Inhibition Total Acid Output) | inhibition in vivo at 10 mg/kg (gastric acid secretion; read-out: % Inhibition Total Acidity) | minimal effective dose (diastolic blood pressure) | ED50 [9] | ED50 [10] | ED50 [11]
5 | 62 µg/mL (≈ 209 µM) | 62 µg/mL (≈ 209 µM) | 62 µg/mL (≈ 209 µM) | 250 µg/mL (≈ 843 µM) | 250 µg/mL (≈ 843 µM) | 62 µg/mL (≈ 209 µM) | 250 µg/mL (≈ 843 µM) | 62 µg/mL (≈ 209 µM) | 10 to 12 µg/mL (≈ 33.7 to 40.5 µM) | CCCCCCC=CC1CCC(O)C1CCCCC(=O)O (stereo not drawn) [9-hydroxy-6,7-dinor-13-trans-prostenoic acid] |  |  | 2 mg/kg | > 10 mg/kg | 6.06 mg/kg | > 10 mg/kg
6 | 25 µg/mL (≈ 77 µM) | 50 µg/mL (≈ 154 µM) | 50 µg/mL (≈ 154 µM) |  | 50 µg/mL (≈ 154 µM) | 25 µg/mL (≈ 77 µM) | 50 µg/mL (≈ 154 µM) | 25 µg/mL (≈ 77 µM) |  | CCCCCC/C=C/[C@H]1CCC(O)[C@@H]1CCCCCCC(=O)O (stereo partly drawn) [9-hydroxy-13-trans-prostenoic acid, 9α- and 9β-hydroxy-13-trans-prostenoic acid] |  |  | 2 mg/kg |  |  | 
